# Laboratory results: ChEMBL document CHEMBL3797190, “Development of 3,5-Dinitrobenzylsulfanyl-1,3,4-oxadiazoles and Thiadiazoles as Selective Antitubercular Agents Active Against Replicating and Nonreplicating Mycobacterium tuberculosis” (J Med Chem, 2016)
# pIC50: −log10 of the molar value. Active and inactive are the calls of the source. The rule behind the calls is not given here.
# Legend:
# [1] = Cytotoxicity against human HeLa cells assessed as cell viability at 20 uM after 24 hrs by MTS assay; assay type: cell-based; settings: read-out: Activity
# Nakaseomyces glabratus = assay: Antifungal activity against Candida glabrata 20/I after 24 to 48 hrs by broth microdilution method; assay type: functional
# [2] = Cytotoxicity against human HuH7 cells assessed as cell viability at 20 uM after 48 hrs by MTS assay; assay type: cell-based, Huh-7; settings: read-out: Activity
# Hepatocyte = assay: Cytotoxicity against primary human hepatocytes assessed as cell viability after 48 hrs by MTS assay; assay type: cell-based
# Salmonella typhimurium [3] = assay: Mutagenic activity in Salmonella typhimurium TA100 assessed as reverse mutation at 30 uM by Ames test; assay type: toxicity, organism-based; settings: salmonella enterica subsp. enterica serovar typhimurium
# Staphylococcus aureus [4] = assay: Antibacterial activity against Staphylococcus aureus ATCC 6538 after 24 to 48 hrs by broth microdilution method; assay type: functional
# Aspergillus fumigatus = assay: Antifungal activity against Aspergillus fumigatus 231 after 24 to 48 hrs by broth microdilution method; assay type: functional
# [5] = system: Mycobacterium tuberculosis H37Ra; assay: Inhibition of DprE1 in Mycobacterium tuberculosis H37Ra assessed as accumulation of trehalose dimycolate at 0.2 ug/ml preincubated for 24 hrs followed by radiolabeling with [14C]-acetate for 24 hrs by TLC/autoradiographic method
# [6] = Cytotoxicity against primary human hepatocytes assessed as cell viability at 20 uM after 48 hrs by MTS assay; assay type: cell-based, Hepatocyte; settings: read-out: Activity
# Pseudomonas aeruginosa = assay: Antibacterial activity against Pseudomonas aeruginosa ATCC 9027 after 24 to 48 hrs by broth microdilution method; assay type: functional
# Mycobacterium kansasii [7] = assay: Antimycobacterial activity against Mycobacterium kansasii CNCTC My 235/80 after 7 days by microdilution method; assay type: functional; settings: CNCTC My 235/80, 168 h
# Mycobacterium kansasii [8] = assay: Antimycobacterial activity against Mycobacterium kansasii CNCTC My 235/80 after 14 days by microdilution method; assay type: functional; settings: CNCTC My 235/80, 336 h
# [9] = system: Mycobacterium tuberculosis; assay: Antimycobacterial activity against non-replicating streptomycin-starved Mycobacterium tuberculosis SS18b-Lux measured at 5 mins to 6 days by luciferase assay; assay type: functional, organism-based
# [10] = target: Decaprenylphosphoryl-beta-D-ribose oxidase (Mycobacterium smegmatis (strain ATCC 700084 / mc(2)155)) (UniProt A0R607); assay: Inhibition of DprE1 in mixture of Mycobacterium smegmatis MC2 155 membrane and cell envelope fractions assessed as incorporation of P[14C]RPP into [14C]-decaprenylphosphoryl arabinose up to 0.6 mM incubated for 1 hr by TLC/autoradiographic method; settings: Mycolicibacterium smegmatis MC2 155
# [11] = system: Mycobacterium tuberculosis; assay: Inhibition of proteosynthesis in Mycobacterium tuberculosis H37Ra assessed as reduction of [14C]-methionine incorporation at 1 ug/ml preincubated for 1 hr followed by radiolabeling with [14C]-methionine for 24 hrs by scintillation spectrometry; assay type: functional
# [12] = Cytotoxicity against human HuH7 cells assessed as cell viability after 24 hrs by MTS assay; assay type: cell-based; settings: Huh-7, 24 h
# HeLa [13] = assay: Cytotoxicity against human HeLa cells assessed as cell viability after 24 hrs by MTS assay; assay type: cell-based
# HeLa [14] = assay: Cytotoxicity against human HeLa cells assessed as cell viability after 48 hrs by MTS assay; assay type: cell-based
# [15] = Cytotoxicity against MDCK2-MDR1 cells assessed as cell viability after 24 hrs by MTS assay; assay type: ADME, cell-based; settings: Canis lupus familiaris, MDCK-II
# Escherichia coli = assay: Antibacterial activity against Escherichia coli ATCC 8739 after 24 to 48 hrs by broth microdilution method; assay type: functional
# [16] = system: Mycobacterium tuberculosis; assay: Antimycobacterial activity against Mycobacterium tuberculosis CNCTC My 331/88 after 14 days by microdilution method; assay type: functional; settings: CNCTC My 331/88, 336 h
# Pichia kudriavzevii = assay: Antifungal activity against Candida krusei E28 after 24 to 48 hrs by broth microdilution method; assay type: functional
# [17] = system: Mycobacterium tuberculosis; assay: Antimycobacterial activity against non-replicating streptomycin-starved Mycobacterium tuberculosis SS18b-Lux by resazurin reduction microplate assay; assay type: functional, organism-based
# [18] = Cytotoxicity against MDCK2-MDR1 cells assessed as cell viability at 20 uM after 24 hrs by MTS assay; assay type: ADME, cell-based, Canis lupus familiaris, MDCK-II; settings: dog, read-out: Activity
# Lichtheimia corymbifera = assay: Antifungal activity against Absidia corymbifera 272 after 24 to 48 hrs by broth microdilution method; assay type: functional
# Trichosporon asahii = assay: Antifungal activity against Trichosporon asahii 1188 after 24 to 48 hrs by broth microdilution method; assay type: functional
# [19] = system: Mycobacterium tuberculosis; assay: Antimycobacterial activity against Mycobacterium tuberculosis H37Ra assessed as growth inhibition at 0.5 ug/ml preincubated for 24 hrs followed by radiolabeling with [14C]-acetate for 24 hrs; assay type: functional; settings: read-out: GI
# Klebsiella pneumoniae [20] = assay: Antibacterial activity against ESBL producing Klebsiella pneumoniae J 14368/08 after 24 to 48 hrs by broth microdilution method; assay type: functional
# [21] = Intrinsic clearance in human liver microsomes assessed per mg of protein at 3 uM preincubated for 5 mins followed by NADPH addition by HPLC analysis; assay type: ADME; settings: read-out: CLH
# Enterococcus faecalis = assay: Antibacterial activity against Enterococcus faecalis J 14365/08 after 24 to 48 hrs by broth microdilution method; assay type: functional
# Mycobacterium avium = assay: Antimycobacterial activity against Mycobacterium avium CNCTC My 330/88 after 14 days by microdilution method; assay type: functional; settings: CNCTC My 330/88, 336 h
# [22] = system: Staphylococcus epidermidis; assay: Antibacterial activity against Staphylococcus epidermidis H 6966/08 after 24 to 48 hrs by broth microdilution method; assay type: functional
# Klebsiella pneumoniae [23] = assay: Antibacterial activity against Klebsiella pneumoniae D 11750/08 after 24 to 48 hrs by broth microdilution method; assay type: functional
# Salmonella typhimurium [24] = assay: Mutagenic activity in Salmonella typhimurium TA98 assessed as reverse mutation at 30 uM by Ames test; assay type: toxicity, organism-based; settings: salmonella enterica subsp. enterica serovar typhimurium
# [25] = Aqueous solubility of compound in distilled water at 0.2 mg/ml after 24 hrs by HPLC analysis; assay type: physicochemical
# [26] = Chemical stability of compound in DMSO at 100 uM after 1 month by HPLC analysis; assay type: physicochemical; settings: 730.5 h
# [27] = Cytotoxicity against human HepG2 cells assessed as cell viability at 50 uM after 48 hrs by MTS assay; assay type: cell-based; settings: read-out: Activity
# [28] = system: Mycobacterium tuberculosis; assay: Inhibition of RNA biosynthesis in Mycobacterium tuberculosis H37Ra assessed as reduction of [14C]-uracil incorporation at 1 ug/ml preincubated for 1 hr followed by radiolabeling with [14C]-uracil for 24 hrs by scintillation spectrometry; assay type: functional
# Mycobacterium kansasii [29] = assay: Antimycobacterial activity against Mycobacterium kansasii CNCTC My 235/80 after 21 days by microdilution method; assay type: functional; settings: CNCTC My 235/80, 504 h
# [30] = Cytotoxicity against human HeLa cells assessed as cell viability at 20 uM after 48 hrs by MTS assay; assay type: cell-based; settings: read-out: Activity
# Staphylococcus aureus [31] = assay: Antibacterial activity against methicillin-resistant Staphylococcus aureus H 5996/08 after 24 to 48 hrs by broth microdilution method; assay type: functional
# [32] = Selectivity index, ratio of IC50 for human HepG2 cells to MIC>99 for Mycobacterium tuberculosis CNCTC My 331/88; assay type: toxicity, cell-based; settings: read-out: Selectivity Index
# [33] = Cytotoxicity against MDCK2-MDR1 cells assessed as cell viability at 20 uM after 48 hrs by MTS assay; assay type: ADME, cell-based, Canis lupus familiaris, MDCK-II; settings: dog, read-out: Activity
# Chain of Decaprenylphosphoryl-beta-D-ribose oxidase (Mycobacterium smegmatis (strain ATCC 700084 / mc(2)155)) (A0R607 whole entry): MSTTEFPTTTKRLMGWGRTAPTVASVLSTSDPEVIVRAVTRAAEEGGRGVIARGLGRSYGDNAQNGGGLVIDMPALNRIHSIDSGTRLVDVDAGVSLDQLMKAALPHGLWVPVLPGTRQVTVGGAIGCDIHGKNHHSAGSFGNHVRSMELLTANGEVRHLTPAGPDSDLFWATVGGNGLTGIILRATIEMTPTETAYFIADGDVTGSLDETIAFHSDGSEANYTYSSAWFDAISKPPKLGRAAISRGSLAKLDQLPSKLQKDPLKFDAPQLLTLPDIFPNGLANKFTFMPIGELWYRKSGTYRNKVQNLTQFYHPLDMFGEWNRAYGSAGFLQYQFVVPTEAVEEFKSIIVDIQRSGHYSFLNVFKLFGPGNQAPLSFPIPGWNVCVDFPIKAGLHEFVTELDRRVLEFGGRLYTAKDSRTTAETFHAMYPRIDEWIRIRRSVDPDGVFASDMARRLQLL
smiles,measurement,setting,value
Cc1ccc(-c2nnc(SCc3cc([N+](=O)[O-])cc([N+](=O)[O-])c3)o2)cc1,"viability at 24 h, 20 µM",[1],87.2%
same,MIC80,Nakaseomyces glabratus,> 125 µM
same,"viability at 48 h, 20 µM",[2],53.1%
same,pIC50,Hepatocyte,< 4.70
same,Activity,Salmonella typhimurium [3],Non-toxic
same,MIC95,Staphylococcus aureus [4],> 125 µM
same,MIC50,Aspergillus fumigatus,> 125 µM
same,inhibition,[5],inactive
same,"viability at 48 h, 20 µM",[6],95.1%
same,MIC95,Pseudomonas aeruginosa,> 125 µM
same,MIC99,Mycobacterium kansasii [7],0.06 µM
same,MIC99,Mycobacterium kansasii [8],0.06 µM
same,Activity,[9],Dose-dependent effect
same,inhibition,[10],inactive
same,inhibition at 1 µg/mL,[11],37%
same,pIC50,[12],< 4.70
same,pIC50,HeLa [13],< 4.70
same,pIC50,HeLa [14],< 4.70
same,pIC50,[15],< 4.70
same,MIC95,Escherichia coli,> 125 µM
same,MIC99,[16],≤ 0.03 µM
same,MIC80,Pichia kudriavzevii,> 125 µM
same,Activity,[17],Dose-dependent effect
same,"viability at 24 h, 20 µM",[18],98%
same,MIC50,Lichtheimia corymbifera,> 125 µM
same,MIC80,Trichosporon asahii,> 125 µM
same,inhibition of growth at 0.5 µg/mL,[19],36%
same,MIC95,Klebsiella pneumoniae [20],> 125 µM
same,microsomal CLint at 3 µM,[21],86 µL/min/mg
same,MIC95,Enterococcus faecalis,> 125 µM
same,MIC99,Mycobacterium avium,8 µM
same,MIC95,[22],> 125 µM
same,MIC95,Klebsiella pneumoniae [23],> 125 µM
same,Activity,Salmonella typhimurium [24],Non-toxic
same,solubility at 24 h,[25],0.067 µM
same,Stability,[26],Stable
same,"viability at 48 h, 50 µM",[27],95.5%
same,inhibition at 1 µg/mL,[28],50%
same,MIC99,Mycobacterium kansasii [29],0.06 µM
same,"viability at 48 h, 20 µM",[30],118%
same,MIC95,Staphylococcus aureus [31],> 125 µM
same,selectivity ratio,[32],> 500
same,"viability at 48 h, 20 µM",[33],48.5%
O=[N+]([O-])c1cc(CSc2nnc(-c3ccc(Cl)cc3)s2)cc([N+](=O)[O-])c1,"viability at 24 h, 20 µM",[1],92.8%
same,MIC80,Nakaseomyces glabratus,> 125 µM
same,"viability at 48 h, 20 µM",[2],43.4%
same,pIC50,Hepatocyte,< 4.70
same,Activity,Salmonella typhimurium [3],Non-toxic
same,MIC95,Staphylococcus aureus [4],> 125 µM
same,MIC50,Aspergillus fumigatus,> 125 µM
same,inhibition,[5],inactive
same,"viability at 48 h, 20 µM",[6],102%
same,MIC95,Pseudomonas aeruginosa,> 125 µM
same,MIC99,Mycobacterium kansasii [7],0.125 µM
same,MIC99,Mycobacterium kansasii [8],0.5 µM
same,Activity,[9],Dose-dependent effect
same,inhibition,[10],inactive
same,inhibition at 1 µg/mL,[11],20%
same,pIC50,[12],< 4.70
same,pIC50,HeLa [13],< 4.70
same,pIC50,HeLa [14],< 4.70
same,pIC50,[15],< 4.70
same,MIC95,Escherichia coli,> 125 µM
same,MIC99,[16],0.06 µM
same,MIC80,Pichia kudriavzevii,> 125 µM
same,Activity,[17],Dose-dependent effect
same,"viability at 24 h, 20 µM",[18],102%
same,MIC50,Lichtheimia corymbifera,> 125 µM
same,MIC80,Trichosporon asahii,> 125 µM
same,inhibition of growth at 0.5 µg/mL,[19],12%
same,MIC95,Klebsiella pneumoniae [20],> 125 µM
same,microsomal CLint at 3 µM,[21],29 µL/min/mg
same,MIC95,Enterococcus faecalis,> 125 µM
same,MIC99,Mycobacterium avium,8 µM
same,MIC95,[22],> 125 µM
same,MIC95,Klebsiella pneumoniae [23],> 125 µM
same,Activity,Salmonella typhimurium [24],Non-toxic
same,solubility at 24 h,[25],0.03 µM
same,Stability,[26],Stable
same,"viability at 48 h, 50 µM",[27],98.5%
same,inhibition at 1 µg/mL,[28],13%
same,MIC99,Mycobacterium kansasii [29],0.5 µM
same,"viability at 48 h, 20 µM",[30],108%
same,MIC95,Staphylococcus aureus [31],> 125 µM
same,selectivity ratio,[32],> 500
same,"viability at 48 h, 20 µM",[33],91.4%
